Consider eleven compounds from US8258135B2, “Quinolizidinone M1 receptor positive allosteric modulators” (Merck Sharp & Dohme Corp., priority 2007, dated 2012).

The first experiment addresses T1, acetylcholine muscarinic M1 receptor (Homo sapiens, UniProt P11229).
T1 construct: expressed in transfected cells; host or cells: CHOnfat (CHO cells, NFAT reporter background) expressing hM1
T1 sequence (P11229 1-460): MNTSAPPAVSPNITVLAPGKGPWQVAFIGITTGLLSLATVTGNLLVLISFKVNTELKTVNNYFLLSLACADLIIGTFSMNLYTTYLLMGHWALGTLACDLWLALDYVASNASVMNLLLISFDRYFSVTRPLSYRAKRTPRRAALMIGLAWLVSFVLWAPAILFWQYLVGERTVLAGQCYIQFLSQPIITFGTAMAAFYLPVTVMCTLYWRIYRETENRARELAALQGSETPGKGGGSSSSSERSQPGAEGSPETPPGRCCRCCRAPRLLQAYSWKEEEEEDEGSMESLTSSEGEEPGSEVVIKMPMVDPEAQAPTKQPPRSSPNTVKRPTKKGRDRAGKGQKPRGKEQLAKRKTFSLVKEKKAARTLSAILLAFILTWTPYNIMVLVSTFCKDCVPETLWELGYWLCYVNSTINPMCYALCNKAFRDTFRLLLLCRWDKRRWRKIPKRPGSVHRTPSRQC
Kind of experiment: muscarinic FLIPR assay: intracellular calcium in CHOnfat/hM1 cells, potentiation of EC20 acetylcholine. In kind it is cell-based.
Conditions: not given
Here is the method: The assay studies the effect of one or several concentrations of test compounds on basal or acetylcholine-stimulated Ca^2+ levels using FLIPR.
Compounds are prepared and subjected to a preincubation period of 4 min. Thereafter, a single EC20 concentration of acetylcholine is added to each well (3 nM final). The intracellular Ca^2+ level of each sample is measured and compared to an acetylcholine control to determine any modulatory activity.
Cells: CHOnfat/hM1, hM2, hM3 or hM4 cells are plated 24 hr before the assay at a density of 18,000 cells/well (100 μL) in a 384 well plate. CHOnfat/hM1 and CHOnfat/hM3 Growth Medium: 90% DMEM (Hi Glucose); 10% HI FBS; 2 mM L-glutamine; 0.1 mM NEAA; Pen-Strep; and 1 mg/ml Geneticin, are added. For M2Gqi5CHOnfat and M4Gqi5CHOnfat cells, an additional 600 ug/ml hygromycin is added.
Equipment: 384 well plate, 120 μL addition plate; 96-well Whatman 2 ml Uniplate Incubator, 37° C., 5% CO2; Skatron EMBLA-384 Plate Washer; Multimek Pipetting System; Genesis Freedom 200 System; Mosquito System; Temo Nanoliter Pipetting System; and FLIPR^384 Fluorometric Imaging Plate Reader System are used.
Buffers. Assay Buffer: Hanks Balanced Salt Solution, with 20 mM Hepes, 2.5 mM Probenecid (Sigma P-8761) first dissolved in 1N NaOH, 1% Bovine Serum Albumin (Sigma A-9647). Dye Loading Buffer: Assay Buffer plus 1% Fetal Bovine Serum and Fluo-4AM/Pluronic Acid Mixture. 2 mM Fluo-4AM ester stock in DMSO (Molecular Probes F-14202) Concentration of 2 uM in buffer for a final concentration of 1 μM in Assay. 20% Pluronic Acid Solution stock, with concentration of 0.04% in Buffer, 0.02% in Assay.
65 μL of 2 mM Fluo-4AM are mixed with 130 μL of 20% Pluronic Acid. The resulting solution and 650 μL FBS is added to the assay buffer for a total volume of 65 mL. Positive Controls: 4-Br-A23187: 10 mM in DMSO; final concentration 10 μM. Acetylcholine: 10 mM in water, working stock at both 20 uM and 30 uM in assay buffer, final concentration of 10 μM. This is used to check the maximum stimulation of the CHOK1/hM1 cells. 20 uM (2×) acetylcholine is added in the preincubation part of the assay, and the 30 uM (3×) stock is added in the second part. (EC20)Acetylcholine: 10 mM in water, working stock of 9 nM (3×), and final concentration in assay is 3 nM. This is used after the preincubation with test compounds. Addition of the EC20) Acetylcholine to each well with a test compound will ascertain any modulator activity. 24 wells contain 3 nM Acetylcholine alone as a control.
Determining Activity of Putative Compounds:
Screening Plate Compounds are titrated in 96-well plates (columns 2-11), 100% DMSO, started at a concentration of 15 mM (150× stock concentration), and 3-fold serial dilutions using Genesis Freedom200 System. Four 96-well plates are combined into a 384-well plate using Mosquito Nanoliter Pipetting System by transferring 1 ul of serial diluted compounds to each well, and 1 mM acetylcholine (100× stock concentration) were added as a control. Using Temo, 49 μl assay buffer is added to each well of the 384-well plate right before assay.
In a 96-well Whatman 2 ml Uniplate, 9 nM Acetylcholine (3×) is pipetted into wells corresponding to the screening compounds, and into control wells. The 30 uM acetylcholine control (3×) is added into control wells, and the 3× agonist plate is transferred into a 384 well plate.
Cells are washed three times with 100 μL of buffer, leaving 30 μL of buffer in each well. Using Multimek, 30 μL of Dye Loading Buffer is added into each well and incubated at […], 5% CO2 for up to one hr.
After 60 min, the cells are washed three times with 100 μL of buffer, leaving 30 μL of buffer in each well. The cell plate, screening plate, and agonist addition plates are placed on the platform in the FLIPR and the door closed. A signal test to check background fluorescence and basal fluorescence signal is performed. Laser intensity is adjusted if necessary. […]
In general terms: A change in cytosolic calcium serves as a functional read-out for many receptors and channels.
For the compound `N#CC1(c2ccccc2)CCN(Cc2cc(C(=O)O)c(=O)n3ccccc23)CC1` [Example 3], the EC50 is 152 nM.

Turning to `N#CC1(c2cccc(Cl)n2)CCN(Cc2cc(C(=O)O)c(=O)n3ccccc23)CC1` [Example 28], the EC50 came out at 133 nM. The same measure, in the same setting: to `N#CC1(c2cccnc2)CCN(Cc2cc(C(=O)O)c(=O)n3ccccc23)CC1` [Example 47, 1-[(4-cyano-4-pyridin-3-ylpiperidin-1-yl)methyl]-4-oxo-4H-quinolizine-3-carboxylic acid] belongs 363 nM; to `N#CC1(c2cccc(F)c2)CCN(Cc2cc(C(=O)O)c(=O)n3ccccc23)CC1` [Example 46, 1-{[4-cyano-4-(3-fluorophenyl)piperidin-1-yl]methyl}-4-oxo-4H-quinolizine-3-carboxylic acid], 562 nM. The same measure, in the same setting: the figure for `Cc1cccc(C2(C#N)CCN(Cc3cc(C(=O)O)c(=O)n4ccccc34)CC2)c1` [Example 8] is 87 nM. On the same count and under the same terms, the figure for `COc1ccccc1C1(C#N)CCN(Cc2cc(C(=O)O)c(=O)n3ccccc23)CC1` [Example 10] is 164 nM; for `N#CC1(c2nc3ccccc3s2)CCN(Cc2cc(C(=O)O)c(=O)n3ccccc23)CC1` [Example 45] it is 91 nM.

The experiment is the same for the next values; noted with them: CHOnfat/hM1 cells, FLIPR, 4 min preincubation, then EC20 acetylcholine (3 nM final); read-out: IP Value (inflection point).
For the compound `C=Cc1ccc(C2(C#N)CCN(Cc3cc(C(=O)O)c(=O)n4ccccc34)CC2)nc1` [Example 50, 1-{[4-cyano-4-(5-vinylpyridin-2-yl)piperidine-1-yl]methyl}-4-oxo-4H-quinolizine-3-carboxylic acid], the EC50 turned out to be 403 nM. On the same count and under the same terms, to `N#CC1(c2ncccc2Br)CCN(Cc2cc(C(=O)O)c(=O)n3ccccc23)CC1` [Example 48, 1-{[4-(3-bromopyridin-2-yl)-4-cyanopiperidin-1-yl]methyl}-4-oxo-4H-quinolizine-3-carboxylic acid] belongs 3400 nM. `N#CC1(c2cnc3ccccc3n2)CCN(Cc2cc(C(=O)O)c(=O)n3ccccc23)CC1` [Example 42]: the EC50 turned out to be 1240 nM. The same measure, in the same setting: the figure for `C=Cc1cccnc1C1(C#N)CCN(Cc2cc(C(=O)O)c(=O)n3ccccc23)CC1` [Example 49, 1-{[4-cyano-4-(3-vinylpyridin-2-yl)piperidin-1-yl]methyl}-4-oxo-4H-quinolizine-3-carboxylic acid] is 6300 nM.
